For this assay, the target named is T1, δ-opioid receptor (Mus musculus, UniProt P32300).
T1 construct: from tissue; host or cells: vas deferens of male ddy mice
Description: δ-opioid antagonist activity against DPDPE in mouse vas deferens (MVD). As to conditions: for Ratio of IC50 Values: DPDPE IC50 with/without 100 nM test compound; for Ratio of IC50 Values / Kb: 20 min; for Kb: against DPDPE, test compound 100 nM, read-out: Ke. The protocol:
Using mouse vas deferens (MVD), the antagonist activity against DPDPE which is a δ-opioid agonist was checked.
In this experiment, ddy male mice were used. In a Magnus' tube which is filled with Krebes-Henseleit solution (NaCl […]; KCl 4.7 mM; CaCl2 2.5 mM; KH2 PO4 1.1 mM; NaHCO3 25 mM; glucose 11 mM) kept at 37° C., and into which an atmosphere consisting of 5% carbon dioxide and 95% oxygen was flown, vas deferens taken from the animals was suspended. Electric stimulation was applied through ring-shaped platinum electrodes mounted on the upper and lower portions of the tube at a frequency of 0.1 Hz and 5.0 mS duration. The contraction of the tissue was recorded on polygraph using isometric transducer.
Then 100 nM of the test compound was added. Twenty minutes later, DPDPE was begun to be added cumulatively. The ratio of IC50 values in the presence and absence of the test compound, Ke value (the molar concentration of the test compound necessary for translating the dose-effect curve to the curve of twice dose) and pA2 value were determined. The pA2 value was determined by the method of Shild et al (Shild, H. O., Br. J. Pharmac. Chamotehr., 4, 277 (1949)). That is, the logarithm of the test compound (log[test compound]) was plotted along the abscissa and the logarithm of the value obtained by subtracting 1 from the ratio of IC50 values was plotted in the presence and absence of the test compound [log(dose ratio-1)] along the ordinate. The pA2 value was determined from the value on the abscissa when the value on the ordinate of the obtained line is 0.

The values that follow come from patent publication US6291470A, “Indole derivatives process for producing the same and medicinal uses of the same” (Toray Industries, Inc., priority 1992, dated 2001).

The structures appear in SMILES notation.

T1 sequence (P32300 whole entry): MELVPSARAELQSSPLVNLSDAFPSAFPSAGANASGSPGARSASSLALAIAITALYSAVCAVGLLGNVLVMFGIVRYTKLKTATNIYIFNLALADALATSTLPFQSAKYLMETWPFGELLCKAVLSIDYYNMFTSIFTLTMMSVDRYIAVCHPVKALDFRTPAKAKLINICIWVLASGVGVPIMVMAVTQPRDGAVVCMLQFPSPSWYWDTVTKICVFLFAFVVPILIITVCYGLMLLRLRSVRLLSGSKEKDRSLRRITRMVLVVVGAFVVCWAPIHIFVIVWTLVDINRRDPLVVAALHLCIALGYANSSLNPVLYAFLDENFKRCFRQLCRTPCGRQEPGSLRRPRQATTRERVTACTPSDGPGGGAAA

With `COC(=O)c1ccc2c3c([nH]c2c1)[C@@H]1Oc2c(O)ccc4c2[C@@]12CCN(CC1CC1)[C@H](C4)[C@]2(O)C3` [Compound 77, 17-cyclopropylmethyl-6,7-didehydro-4,5α-epoxy-3,14β-dihydroxy-6'-methoxycarbonyl-6,7-2',3'-indolomorphinan], the “δ-antagonist activity relative to NTI (times that of NTI)” value was 1.3-1.6 times, the “Ratio of IC50 Values” worked out at 742 and the Kb turned out to be 0.00013 µM.

`CCOC(=O)Cc1cccc2[nH]c3c(c12)C[C@@]1(O)[C@H]2Cc4ccc(O)c5c4[C@@]1(CCN2CC1CC1)[C@H]3O5` [Compound 48, 17-cyclopropylmethyl-6,7-didehydro-4,5α-epoxy-3,14β-dihydroxy-4'-ethoxycarbonylmethyl-6,7-2',3'-indolomorphinan]: the “Ratio of IC50 Values” is 5.88 and the Kb is 0.0205 µM.

As to `N#Cc1ccc2[nH]c3c(c2c1)C[C@@]1(O)[C@H]2Cc4ccc(O)c5c4[C@@]1(CCN2CC1CC1)[C@H]3O5` [Compound 8, 17-cyclopropylmethyl-6,7-didehydro-4,5α-epoxy-3,14β-dihydroxy-5'-cyano-6,7-2',3'-indolomorphinan], the “Ratio of IC50 Values” is 3.60 and the Kb is 0.0385 µM.

With `Oc1ccc2c3c1O[C@H]1c4[nH]c5ccc(OC(F)(F)F)cc5c4C[C@@]4(O)[C@@H](C2)N(CC2CC2)CC[C@]314` [Compound 4, 17-cyclopropylmethyl-6,7-didehydro-4,5α-epoxy-3,14β-dihydroxy-5'-trifluoromethoxy-6,7-2',3'-indolomorphinan], the “Ratio of IC50 Values” is listed as 7.95 and the Kb was determined as 0.0144 µM.

As for `NS(=O)(=O)c1ccc2[nH]c3c(c2c1)C[C@@]1(O)[C@H]2Cc4ccc(O)c5c4[C@@]1(CCN2CC1CC1)[C@H]3O5` [Compound 5, 17-cyclopropylmethyl-6,7-didehydro-4,5α-epoxy-3,14β-dihydroxy-5'-sulfamoyl-6,7-2',3'-indolomorphinan], the “Ratio of IC50 Values” came to 4.36 and the Kb came out at 0.0298 µM.

With `OCCc1ccc2c3c([nH]c2c1)[C@@H]1Oc2c(O)ccc4c2[C@@]12CCN(CC1CC1)[C@H](C4)[C@]2(O)C3` [Compound 41, 17-cyclopropylmethyl-6,7-didehydro-4,5α-epoxy-3,14β-dihydroxy-6'-(2-hydroxyethyl)-6,7-2',3'-indolomorphinan], the “Ratio of IC50 Values” came to 22.1 and the Kb came out at 0.00474 µM.

Take `Oc1ccc2c3c1O[C@H]1c4[nH]c5ccc(I)cc5c4C[C@@]4(O)[C@@H](C2)N(CC2CC2)CC[C@]314` [Compound 1, 17-cyclopropylmethyl-6,7-didehydro-4,5α-epoxy-3,14β-dihydroxy-5'-iodo-6,7-2',3'-indolomorphinan]: the “Ratio of IC50 Values” turned out to be 8.88 and the Kb worked out at 0.0127 µM.

Turning to `CCOC(=O)Cc1ccc2c3c([nH]c2c1)[C@@H]1Oc2c(O)ccc4c2[C@@]12CCN(CC1CC1)[C@H](C4)[C@]2(O)C3` [Compound 49, 17-cyclopropylmethyl-6,7-didehydro-4,5α-epoxy-3,14β-dihydroxy-6'-ethoxycarbonylmethyl-6,7-2',3'-indolomorphinan], the “Ratio of IC50 Values” was 27.8 and the Kb was determined as 0.00373 µM.

In the case of `OCCc1cccc2[nH]c3c(c12)C[C@@]1(O)[C@H]2Cc4ccc(O)c5c4[C@@]1(CCN2CC1CC1)[C@H]3O5` [Compound 40, 17-cyclopropylmethyl-6,7-didehydro-4,5α-epoxy-3, 14β-dihydroxy-4'-(2-hydroxyethyl)-6,7-2',3'-indolomorphinan], the “Ratio of IC50 Values” was 4.60 and the Kb was 0.0278 µM.

Turning to `C=CCN1CC[C@]23c4c5ccc(O)c4O[C@H]2c2[nH]c4cc(C(=O)OC)ccc4c2C[C@@]3(O)[C@H]1C5` [Compound 115, 17-allyl-6,7-didehydro-4,5α-epoxy-3,14β-dihydroxy-6'-methoxycarbonyl-6,7-2',3'-indolomorphinan], the “Ratio of IC50 Values” is 75.4 and the Kb came out at 0.00134 µM.
